Test results reported in US9914707B2, “Naphthylamide compound, preparation method and use thereof” (SHANGHAI INSTITUTE OF MATERIA MEDICA, CHINESE ACADEMY OF …, priority 2014, dated 2018).

Tested on: VEGF-induced human umbilical vein endothelial cells (HUVEC) proliferation
Test: VEGF-induced human umbilical vein endothelial cells (HUVEC) proliferation (SRB)
Assay type: cell-based
Conditions: for cell activity compared with positive control compound ABT869: VEGF-induced HUVEC proliferation
Procedure: 5000-8000 primary HUVEC cells before 5-15 doublings were seeded to each well of 96-well plate and each well contained 90 μl. The cells were cultured overnight and then starved with 90 μl/well serum-free basal culture medium for 24 h. Then 10 μl different concentration of compound was added to each well. Five concentrations were set and each concentration had 3 wells. After 2 h, 100 ng/mL of VEGF growth-stimulating factor was added. After 48 h, the medium was discarded, the cells were fixed with pre-cooled 10% TCA at 4° C. for 1 h, then washed with distilled water five times and dried in air. Then 100 μl of 4 mg/ml of sulforodamine B (SRB) solution prepared from 1% acetic acid was added to each well to dye 15 minutes at room temperature. The staining solution was discarded and each well was washed with 1% acetic acid five times and then dried in air. Finally, each well was added with 150 μl Tris-HCl solution (10 mM Tris, pH 10.0) and absorbance OD values at 560 nm were measured by microplate reader. Inhibition rate of the compound on HUVEC cell proliferation was measured to reflect VEGF-mediated proliferation inhibition effect of compound.
Inhibition rate of the compound was obtained by the following formula: […]
IC50 values were calculated by inhibition curves with four parameters fitting.

SMILES	cell activity compared with positive control compound ABT869	IC50 (Homo sapiens, primary HUVEC, 100 ng/mL VEGF, 48 h, SRB, read-out: Half inhibitory concentration for VEGF-induced HUVEC proliferation, IC50)
Nc1n[nH]c2cccc(-c3ccc4c(C(=O)Nc5cc(F)cc(F)c5)cccc4c3)c12 [Compound I-14, 6-(3-amino-1H-indazol-4-yl)-N-(3,5-difluorophenyl)-1-naphthalenecarboxamide]	stronger than that of positive control compound ABT869	–
CCc1cccc(NC(=O)c2cccc3cc(-c4cccc5[nH]nc(N)c45)ccc23)c1 [Compound I-9, 6-(3-amino-1H-indazol-4-yl)-N-(3-ethylphenyl)-1-naphthalenecarboxamide]	stronger than that of positive control compound ABT869	–
Cc1ccc(NC(=O)c2cccc3cc(-c4cccc5[nH]nc(N)c45)ccc23)cc1 [Compound I-8, 6-(3-amino-1H-indazol-4-yl)-N-(p-methylphenyl)-1-naphthalenecarboxamide]	stronger than that of positive control compound ABT869	–
Cc1ccc(F)c(NC(=O)Nc2ccc(-c3cccc4[nH]nc(N)c34)cc2)c1 [ABT869, reference compound]	–	2.32 nM
Cc1cc(NC(=O)c2cccc3cc(-c4cccc5[nH]nc(N)c45)ccc23)ccc1F [Compound I-21, 6-(3-amino-1H-indazol-4-yl)-N-(4-fluoro-3-methylphenyl)-1-naphthalenecarboxamide]	stronger than that of positive control compound ABT869	–
